“And” between values parts separate entries of the source, which are not always exact repeats. Equal values may be shown once.
Key:
[1] = system: HepG2 cells; assay: MTT cytotoxicity assay, HepG2; format: cell-based; conditions: Homo sapiens, HepG2, 48 h, read-out: Cytotoxic IC50 HepG2
Experimental: (§3) Using RPMI-1640 medium L-Glutamine (Lonza Verviers SPRL, Belgium, cat#12-604F), we successfully cultured liver (HepG2), breast (MCF-7), and lung (A549) cells bought from the National Research Institute, Egypt. Each culture was supplemented with 10% foetal bovine serum (FBS, Sigma-Aldrich, MO, USA) and 1% penicillin-streptomycin (Lonza, Belgium). Using a 96-well plate, cells were seeded at a density of 5,000 cells per well in triplicate. The chemicals were added to the cells on day 2 at doses of (0.01, 0.1, 1, 10, and 100 M). To determine cell viability, MTT solution was used after 48 h (Promega, USA)[84]. Using GraphPad Prism 7, as was previously reported in, we computed the survival rate in comparison to the control and obtained the IC50 values[85].

[2] = system: A549 cells; assay: MTT cytotoxicity assay, A549; format: cell-based; conditions: Homo sapiens, A549, 48 h, read-out: Cytotoxic IC50 A549
Experimental: as §3

[3] = system: MCF-7 cells; assay: MTT cytotoxicity assay, MCF-7; format: cell-based; conditions: Homo sapiens, MCF7, 48 h, read-out: Cytotoxic IC50 MCF-7
Experimental: as §3

[4] = biological target: T1, Topoisomerase II (Homo sapiens, UniProt P11388); assay: Topoisomerase II inhibition assay; format: biochemical; conditions: average of three independent replicates, five concentrations
T1 construct: purchased TopoGEN, Inc., Columbus
Experimental: (§1) Topoisomerase II (TopoGEN, Inc., Columbus) and DNA intercalator (methyl green (20 mg) and Calfthymus DNA (10 mg) were tested for their capacity to block the enzyme’s activity. Following equation was used to determine compound inhibition percentages: 100−[A control/A treated−Control)], IC50 was determined using GraphPad prism7 using inhibition curves at five different concentrations of each compound[86].

[5] = system: Calfthymus DNA; assay: DNA intercalation assay (DNA/methyl green); format: binding, calf; conditions: average of three independent replicates, five concentrations
Experimental: as §1

[6] = MTT cytotoxicity assay, HepG2; format: cell-based; conditions: human, HepG2 liver cells, read-out: Cytotoxic IC50 HepG2
Experimental: as §3

[7] = MTT cytotoxicity assay, A549; format: cell-based; conditions: human, A549 lung cells, read-out: Cytotoxic IC50 A549
Experimental: as §3

[8] = MTT cytotoxicity assay, MCF-7; format: cell-based; conditions: human, MCF-7 breast cells, read-out: Cytotoxic IC50 MCF-7
Experimental: as §3

[9] = system: Casp-9; assay: RT-PCR gene expression, Casp-9; format: cell-based; conditions: HepG2 cells, IC50, 48 h; normalized to β-actin; untreated = 1
Experimental: (§2) The gene expression of P53, Bax, Caspasses-3,8,9 as proapoptotic genes and Bcl-2 as an anti-apoptotic gene were evaluated to investigate the apoptotic pathway. […] Afterwards, the standard operating procedure called for an RT-PCR reaction to be performed. The Ct values were then used to determine the relative expression of each gene in each sample, normalised to the β-actin as house-keeping gene[90–92].

[10] = system: P53; assay: RT-PCR gene expression, P53; format: cell-based; conditions: HepG2 cells, IC50, 48 h; normalized to β-actin; untreated = 1
Experimental: as §2

[11] = system: HepG2 cells; assay: DNA content flow cytometry cell cycle analysis; format: cell-based; conditions: IC50 concentration, 48 h, control 39.15%
[12] = system: HepG2 cells; assay: Annexin V/PI staining flow cytometry (apoptosis); format: cell-based; conditions: IC50 concentration, 48 h
Experimental: After incubation overnight, 6-well culture plates were populated with HepG2 cells (3–5 10^5 cells/well). […] Cells and medium supernatants were then collected and washed in ice-cold PBS. The next step was suspending the cells in 100 µL of annexin binding buffer solution "25 mM CaCl2, 1.4 M NaCl, and 0.1 M Hepes/NaOH, pH 7.4” and incubation with “Annexin V-FITC solution (1:100) and propidium iodide (PI)” at a concentration equals 10 µg/mL in the dark for 30 min. The Cytoflex FACS system was then used to acquire the stained cells. cytExpert was used for the statistical analysis.

[13] = system: Bcl-2; assay: RT-PCR gene expression, Bcl-2; format: cell-based; conditions: HepG2 cells, IC50, 48 h; normalized to β-actin; untreated = 1
Experimental: as §2

[14] = system: Casp-8; assay: RT-PCR gene expression, Casp-8; format: cell-based; conditions: HepG2 cells, IC50, 48 h; normalized to β-actin; untreated = 1
Experimental: as §2

[15] = system: Bax; assay: RT-PCR gene expression, Bax; format: cell-based; conditions: HepG2 cells, IC50, 48 h; normalized to β-actin; untreated = 1
Experimental: as §2

[16] = system: Casp-3; assay: RT-PCR gene expression, Casp-3; format: cell-based; conditions: HepG2 cells, IC50, 48 h; normalized to β-actin; untreated = 1
Experimental: as §2

T1 sequence (P11388 whole entry): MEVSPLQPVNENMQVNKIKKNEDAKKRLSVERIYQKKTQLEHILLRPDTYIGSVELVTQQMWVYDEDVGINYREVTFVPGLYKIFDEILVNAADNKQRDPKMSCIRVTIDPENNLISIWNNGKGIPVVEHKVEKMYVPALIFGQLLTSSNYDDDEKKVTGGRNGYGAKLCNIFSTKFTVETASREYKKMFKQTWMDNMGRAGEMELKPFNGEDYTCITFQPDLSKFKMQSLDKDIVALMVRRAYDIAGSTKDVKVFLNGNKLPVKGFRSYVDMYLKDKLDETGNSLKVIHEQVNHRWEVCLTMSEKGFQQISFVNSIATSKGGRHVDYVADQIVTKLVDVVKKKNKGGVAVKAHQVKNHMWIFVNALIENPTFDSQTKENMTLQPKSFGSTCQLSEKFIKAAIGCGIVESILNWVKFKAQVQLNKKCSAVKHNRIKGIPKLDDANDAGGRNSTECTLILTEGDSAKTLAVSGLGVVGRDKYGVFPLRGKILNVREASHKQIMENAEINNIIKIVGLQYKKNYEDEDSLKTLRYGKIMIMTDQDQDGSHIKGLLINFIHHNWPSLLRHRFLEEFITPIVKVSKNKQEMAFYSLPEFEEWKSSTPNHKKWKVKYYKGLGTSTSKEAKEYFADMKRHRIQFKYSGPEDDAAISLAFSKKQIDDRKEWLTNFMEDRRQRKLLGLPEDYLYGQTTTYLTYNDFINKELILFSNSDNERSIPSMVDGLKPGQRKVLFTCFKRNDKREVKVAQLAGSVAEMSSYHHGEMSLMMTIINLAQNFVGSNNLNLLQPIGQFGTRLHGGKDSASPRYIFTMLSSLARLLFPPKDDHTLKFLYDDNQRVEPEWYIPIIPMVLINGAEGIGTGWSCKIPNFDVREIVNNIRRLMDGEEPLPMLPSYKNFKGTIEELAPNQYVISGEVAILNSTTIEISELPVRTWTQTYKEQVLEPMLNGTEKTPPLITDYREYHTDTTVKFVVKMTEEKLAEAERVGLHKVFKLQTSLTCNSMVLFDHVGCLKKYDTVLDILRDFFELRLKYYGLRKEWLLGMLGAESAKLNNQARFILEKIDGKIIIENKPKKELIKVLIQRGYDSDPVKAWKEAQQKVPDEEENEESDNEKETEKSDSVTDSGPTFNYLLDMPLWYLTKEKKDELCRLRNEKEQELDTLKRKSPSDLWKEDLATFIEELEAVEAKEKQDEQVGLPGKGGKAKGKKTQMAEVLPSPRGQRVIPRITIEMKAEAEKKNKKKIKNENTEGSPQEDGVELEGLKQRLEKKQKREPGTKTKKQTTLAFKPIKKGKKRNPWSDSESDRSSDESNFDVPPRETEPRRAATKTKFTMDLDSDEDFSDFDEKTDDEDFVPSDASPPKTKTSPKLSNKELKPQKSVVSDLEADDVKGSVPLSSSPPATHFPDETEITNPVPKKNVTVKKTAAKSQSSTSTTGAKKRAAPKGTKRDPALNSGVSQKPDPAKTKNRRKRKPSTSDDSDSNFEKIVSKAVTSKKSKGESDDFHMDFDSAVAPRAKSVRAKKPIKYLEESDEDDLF

SMILES | melting point [°C] | IC50 [1] [µM] | IC50 [2] [µM] | IC50 [3] [µM] | other results
O=C1NC(=S)S/C1=C\c1ccc(Cl)cc1Cl [Compound 3b, 5-((Z)-2,4-dichlorobenzylidene)-2-thioxo-4-thiazolidinone] |  | 7.8 | 9.7 | 17.9 | 
CC(=O)OC[C@H]1O[C@@H](SC2=NC(=O)/C(=C/c3ccc4c(c3)OCCO4)S2)[C@H](OC(C)=O)[C@@H](OC(C)=O)[C@@H]1OC(C)=O [Compound 13c, 5-((Z)-2,4-ethylenedioxybenzylidene)-2–(2',3',4',6'-tetra-O-acetyl-β-D-glucopyranosyl)-2-thioxo-4-thiazolidinone] |  | 21.2 | 4.1 |  | 
O=C1NC(=S)S/C1=C\c1ccc2c(c1)OCO2 [Compound 3f, 5-((Z)-3,4-methylenedioxybenzylidene)-2-thioxo-4-thiazolidinone] |  | 8.9 | 21.1 | 12.8 | 
CC(=O)OC[C@H]1O[C@@H](SC2=NC(=O)CS2)[C@H](OC(C)=O)[C@@H](OC(C)=O)[C@@H]1OC(C)=O [Compound 7] |  |  |  |  | IC50 at 48 h [6]: 0.76 µM; IC50 [4]: 9.1 µM; IC50 at 48 h [7]: 0.31 µM; IC50 [5]: 29.6 µM; IC50 at 48 h [8]: 12.4 µM
O=C1NC(=S)S/C1=C\c1ccc2c(c1)OCCO2 [Compound 3c, 5-((Z)-3,4-ethylenedioxybenzylidene)-2-thioxo-4-thiazolidinone] | 208 to 210 | 11.7 | 13.7 | 7.1 | 
O=C1CSC(=S)N1CN1CCOCC1 [Compound 10, 3-morpholinomethyl-2-thioxo-4-thiazolidinone] |  |  | 36.4 |  | 
COc1ccc(/C=C2\SC(=S)NC2=O)cc1 [Compound 3d, 5-((Z)-4-methoxybenzylidene)-2-thioxo-4-thiazolidinone] |  | 18.1 | 7.8 | 15.1 | 
O=C1NC(=O)/C(=C/c2ccc(Cl)cc2Cl)S1 [Compound 14, 5-((Z)-2,4-dichlorobenzylidene)-2,4-thiazolidindione] |  | 37.3 | 31.6 | 42.2 | 
CC(=O)OC[C@H]1O[C@@H](N2C(=O)CSC2=S)[C@H](OC(C)=O)[C@@H](OC(C)=O)[C@@H]1OC(C)=O [Compound 6, 3-(2',3',4',6'-Tetra-O-acetyl-β-D-glucopyranosyl)-2-thioxo-4-thiazolidinone] |  | 0.21 | 1.7 | 11.7 | Fold Change = 2^-ΔΔCT Casp-9 [9]: 6.14 fold and 6.14 ± 0.19 fold; Fold Change = 2^-ΔΔCT P53 [10]: 6.16 fold and 6.16 ± 0.69 fold; Cell population at S-phase [11]: 49.6%; Activation of apoptotic cell death versus untreated control [12]: 80.7 fold; Early apoptosis (AV+/PI-) [12]: 23.07%; Late apoptosis (AV+/PI+) [12]: 11.66%; Total apoptosis ([12]; untreated control 0.43%): 34.73%; Fold Change = 2^-ΔΔCT Bcl-2 [13]: 0.36 fold and 0.36 ± 0.01 fold; IC50 [4]: 6.9 µM; IC50 [5]: 19.6 µM; Fold Change = 2^-ΔΔCT Casp-8 [14]: 3.29 fold and 3.29 ± 0.5 fold; Fold Change = 2^-ΔΔCT Bax [15]: 5.7 fold and 5.7 ± 0.26 fold; Fold Change = 2^-ΔΔCT Casp-3 [16]: 8.3 fold and 8.3 ± 0.37 fold
COc1cccc2c1C(=O)c1c(O)c3c(c(O)c1C2=O)C[C@@](O)(C(=O)CO)C[C@@H]3O[C@H]1C[C@H](N)[C@H](O)[C@H](C)O1 [Doxorubicin, reference compound] |  |  | 6.62 | 7.67 | IC50 [5]: 31.3 µM

Continued, in another order:

melting point [°C] | SMILES | IC50 [1] [µM] | IC50 [2] [µM] | IC50 [3] [µM] | other results
199 to 201 | COc1cccc(/C=C2\SC(=S)NC2=O)c1O [Compound 3e] | 16.3 | 7.7 | 3.1 | 
166 to 168 | CC(=O)OCC1OC(SC2=NC(=O)C(=Cc3ccccc3)S2)C(OC(C)=O)C(OC(C)=O)C1OC(C)=O [Compound 13a, 5-((Z)-benzylidene)-2–(2',3',4',6'-tetra-O-acetyl-β-D-glucopyranosyl)-2-thioxo-4-thiazolidinone] | 17.2 | 6.1 | 3.1 | IC50 [4]: 8.3 µM; IC50 [5]: 22.6 µM
72 to 74 | CSC1NC(=O)CS1 (stereo not shown) [Compound 11, 2-methylmercapto-4-thiazolidinone] |  |  |  | 
167 to 169 | CC(=O)OCC1OC(SC2=NC(=O)C(=Cc3ccc(Cl)cc3Cl)S2)C(OC(C)=O)C(OC(C)=O)C1OC(C)=O [Compound 13b, 5-((Z)-2,4-dichlorobenzylidene)-2–(2',3',4',6'-tetra-O-acetyl-β-D-glucopyranosyl)-2-thioxo-4-thiazolidinone] | 7.2 | 10.1 | 13.1 | 

— article PMC9848385, “Design, synthesis, molecular modelling and antitumor evaluation of S-glucosylated rhodanines through topo II inhibition and DNA intercalation” (Journal of Enzyme Inhibition and Medicinal Chemistry, 2023)
